Data from the supplement of paper PMC10307832.

Key:
Assay in all cases: relative viability (nuclei count vs DMSO), 5 days (fraction); higher = more cells survive
[1] = compound: CN1CCC(CC1)OC2=CC(=C(C=C2)NC3=NC=C4C(=N3)N(C(=O)N4C)C5CCCC5)OC [AZ3146] + CC(=O)c1c(C)c2cnc(Nc3ccc(N4CCNCC4)cn3)nc2n(C2CCCC2)c1=O [Palbociclib] (partner 0.5 µM)
How it was run: (§1)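 One day after seeding in 1536-well plates, lung cancer cell lines were dosed by pin tool. Dosing was either single-drug or a fixed anchor-drug dose plus five library-drug doses (not always all listed) in √10 steps. After 5 days, nuclei were stained in one fix-and-stain step and counted on 4× images, and relative viability is the nuclei count of treated wells over that of vehicle wells, given as the median of duplicate plates.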

[2] = compound: CN1CCC(CC1)OC2=CC(=C(C=C2)NC3=NC=C4C(=N3)N(C(=O)N4C)C5CCCC5)OC [AZ3146] + CC1(C)CCC(c2ccc(Cl)cc2)=C(CN2CCN(c3ccc(C(=O)NS(=O)(=O)c4ccc(N[C@H](CCN5CCOCC5)CSc5ccccc5)c(S(=O)(=O)C(F)(F)F)c4)cc3)CC2)C1 [Navitoclax] (partner 0.5 µM)
How it was run: as §1

[3] = compound: CCOC(=O)CCNc1cc(N2CCc3ccccc3CC2)nc(-c2ccccn2)n1 [GSK-J4] + Cc1cc(Nc2cc(N3CCN(C)CC3)nc(Sc3ccc(NC(=O)C4CC4)cc3)n2)n[nH]1 [Tozasertib] (partner 0.1 µM)
How it was run: as §1

[4] = compound: CN1CCC(CC1)OC2=CC(=C(C=C2)NC3=NC=C4C(=N3)N(C(=O)N4C)C5CCCC5)OC [AZ3146] + C[C@]1(O)C[C@@H](c2nc(-c3ccc4ccc(-c5ccccc5)nc4c3)c3c(N)nccn32)C1 [Linsitinib] (partner 1 µM)
How it was run: as §1

| Cell Line | relative viability ([1]; first compound 0.08 µM) | relative viability ([1]; first compound 0.253 µM) | relative viability ([1]; first compound 0.8 µM) | relative viability ([1]; first compound 2.53 µM) | relative viability ([1]; first compound 8 µM) | relative viability ([2]; first compound 0.08 µM) | relative viability ([2]; first compound 0.253 µM) | relative viability ([2]; first compound 0.8 µM) | relative viability ([2]; first compound 2.53 µM) | relative viability ([2]; first compound 8 µM) | relative viability ([3]; first compound 0.5 µM) | relative viability ([3]; first compound 1.581 µM) | relative viability ([3]; first compound 5 µM) | relative viability ([3]; first compound 15.81 µM) | relative viability ([3]; first compound 50 µM) | relative viability ([4]; first compound 0.08 µM) | relative viability ([4]; first compound 0.253 µM) | relative viability ([4]; first compound 0.8 µM) | relative viability ([4]; first compound 2.53 µM) | relative viability ([4]; first compound 8 µM) |
| --- | --- | --- | --- | --- | --- | --- | --- | --- | --- | --- | --- | --- | --- | --- | --- | --- | --- | --- | --- | --- |
| NCI-H441 | 0.216 | 0.199 | 0.211 | 0.265 | 0.204 | 0.416 | 0.576 | 0.53 | 0.547 | 0.683 | 0.595 | 0.634 | 0.526 | 0.559 | 0.494 | 0.479 | 0.525 | 0.474 | 0.635 | 0.621 |
| SK-LU-1 | 0.375 | 0.365 | 0.355 | 0.404 | 0.386 | 0.914 | 0.702 | 0.793 | 0.926 | 0.576 | 0.306 | 0.28 | 0.289 | 0.326 | 0.276 | 1.02 | 1.4 | 1.13 | 1.27 | 0.547 |
| NCI-H2228 | 0.671 | 0.878 | 0.728 | 0.622 | 0.59 | 0.901 | 0.8 | 0.961 | 0.935 | 0.845 | 0.221 | 0.237 | 0.246 | 0.247 | 0.212 | 1 | 0.867 | 0.657 | 0.628 | 0.774 |
| LCLC-97TM1 | 0.245 | 0.247 | 0.232 | 0.225 | 0.188 | – | – | 0.541 | 0.361 | 0.544 | 0.322 | 0.187 | 0.226 | 0.146 | 0.165 | – | – | 0.221 | 0.164 | 0.173 |
| NCI-H1993 | 0.721 | 0.71 | 0.579 | 0.639 | 0.762 | 0.972 | 0.935 | 0.993 | 0.929 | 0.898 | 0.51 | 0.562 | 0.646 | 0.503 | 0.497 | 0.689 | 0.731 | 0.782 | 0.789 | 0.704 |
| NCI-H1793 | 0.269 | 0.292 | 0.311 | 0.374 | 0.321 | 0.437 | 0.311 | 0.46 | 0.492 | 0.436 | 0.331 | 0.315 | 0.305 | 0.266 | 0.286 | 0.841 | 0.921 | 0.638 | 0.813 | 1.02 |
| NCI-H2087 | 0.181 | 0.235 | 0.244 | 0.267 | 0.206 | 1.04 | 1.06 | 1.08 | 1.05 | 0.968 | 0.265 | – | 0.281 | 0.217 | 0.251 | 0.816 | 0.952 | 1.11 | 1.02 | 1 |
| COR-L23 | 0.244 | 0.351 | 0.328 | 0.321 | 0.278 | 1.05 | 1.08 | 0.984 | 1.03 | 0.923 | 0.171 | 0.211 | – | 0.158 | 0.136 | 0.771 | 1.04 | 0.852 | 1.1 | 0.884 |
| NCI-H1355 | 0.396 | 0.402 | 0.405 | 0.406 | 0.388 | 0.974 | 0.872 | 1.04 | 0.922 | 1.01 | 0.517 | 0.517 | 0.575 | 0.439 | 0.437 | 0.774 | 0.854 | 0.825 | 0.864 | 0.885 |
| RERF-LC-KJ | 1.05 | 1.17 | 1.01 | 1.21 | 0.833 | 0.872 | 0.878 | 1.04 | 0.787 | 0.839 | 0.415 | 0.428 | 0.483 | 0.493 | 0.357 | 0.904 | 0.902 | 0.972 | 0.876 | 0.896 |
| NCI-H727 | 0.663 | 0.624 | 0.675 | 0.627 | 0.659 | 0.501 | 0.476 | 0.431 | 0.436 | 0.413 | 0.714 | 0.541 | 0.621 | 0.585 | 0.463 | 0.319 | 0.188 | 0.35 | 0.269 | 0.26 |
| NCI-H1734 | 0.308 | 0.376 | 0.387 | 0.3 | 0.317 | 0.821 | 0.828 | 0.831 | 0.847 | 0.846 | 0.266 | 0.251 | 0.26 | 0.246 | 0.259 | 0.787 | 0.871 | 0.965 | 0.877 | 0.934 |
| NCI-H2126 | 0.336 | 0.33 | 0.375 | 0.333 | 0.339 | 0.8 | 0.843 | 0.896 | 0.861 | 0.849 | 0.793 | 0.676 | 0.794 | 0.839 | 0.733 | 0.687 | 0.667 | 0.761 | 0.739 | 0.696 |
| NCI-H23 | 0.503 | 0.515 | 0.494 | 0.513 | 0.473 | 0.751 | 0.687 | 0.786 | 0.86 | 0.993 | 0.333 | 0.397 | 0.373 | 0.281 | 0.249 | 0.584 | 0.563 | 0.616 | 0.656 | 0.605 |
| EPLC-272H | 0.327 | 0.342 | 0.309 | 0.338 | 0.27 | 0.985 | 0.98 | 1.05 | 1.37 | 1.19 | 0.385 | 0.174 | 0.443 | 0.146 | 0.172 | 0.988 | 1.07 | 1.16 | 1.07 | 1.24 |
| NCI-H2023 | 0.347 | 0.343 | 0.364 | 0.311 | 0.255 | 0.887 | 1.08 | 1.06 | 1.04 | 0.652 | 0.384 | – | 0.335 | 0.371 | 0.222 | 0.743 | 0.694 | 0.612 | 0.677 | 0.546 |
